Test results: the supplement of paper PMC4862054

How the values were obtained:
Assay in all cases: normalised response (% of control), CellTiter-Glo; higher = more viable cells (100 = DMSO, 0 = benzethonium chloride kill control)
Conditions in all cases: incubation time: 72 h
MDA-MB-231 = system: MDA-MB-231
Summary of the method: (§1)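 Compound was dispensed into 384-well plates at 5 concentrations in 10-fold steps spanning a 10,000-fold range specific to that compound. Breast cancer cell lines were added as 20 µl suspension and left for 72 h before CellTox Green fluorescence (485/520 nm) and then CellTiter-Glo luminescence, read after 10 min at room temperature. Each reported value is the normalised signal at one concentration, with 0.1 % DMSO set at 100 and a positive kill control at 0 on each plate.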

MCF-10A = system: MCF-10A
Summary of the method: as §1

DU-4475 = system: DU-4475
Summary of the method: as §1

SK-BR-3 = system: SK-BR-3
Summary of the method: as §1

CAL-148 = system: CAL-148
Summary of the method: as §1

MFM-223 = system: MFM-223
Summary of the method: as §1

BT-549 = system: BT-549
Summary of the method: as §1

CAL-51 = system: CAL-51
Summary of the method: as §1

MDA-MB-436 = system: MDA-MB-436
Summary of the method: as §1

HDQ-P1 = system: HDQ-P1
Summary of the method: as §1

CAL-85-1 = system: CAL-85-1
Summary of the method: as §1

HCC1937 = system: HCC1937
Summary of the method: as §1

Hs578T = system: Hs578T
Summary of the method: as §1

CAL-120 = system: CAL-120
Summary of the method: as §1

HCC1599 = system: HCC1599
Summary of the method: as §1

MDA-MB-468 = system: MDA-MB-468
Summary of the method: as §1

BT-474 = system: BT-474
Summary of the method: as §1

HCC1143 = system: HCC1143
Summary of the method: as §1

MDA-MB-453 = system: MDA-MB-453
Summary of the method: as §1

| Compound | normalised response (MDA-MB-231) [%] | normalised response (MCF-10A) [%] | normalised response (DU-4475) [%] | normalised response (SK-BR-3) [%] | normalised response (CAL-148) [%] | normalised response (MFM-223) [%] | normalised response (BT-549) [%] | normalised response (CAL-51) [%] | normalised response (MDA-MB-436) [%] | normalised response (HDQ-P1) [%] | normalised response (CAL-85-1) [%] | normalised response (HCC1937) [%] | normalised response (Hs578T) [%] | normalised response (CAL-120) [%] | normalised response (HCC1599) [%] | normalised response (MDA-MB-468) [%] | normalised response (BT-474) [%] | normalised response (HCC1143) [%] | normalised response (MDA-MB-453) [%] |
| --- | --- | --- | --- | --- | --- | --- | --- | --- | --- | --- | --- | --- | --- | --- | --- | --- | --- | --- | --- |
| Cn1cc(CNCC2CCN(c3ncc(C(=O)NO)cn3)CC2)c2ccccc21 [Quisinostat] (1 nM) | 101 | 107 | 102 | 102 | 110 | 104 | 97.8 | 121 | 104 | 94.3 | 97.7 | 97.1 | 96.8 | 96.8 | 110 | 97 | 107 | 103 | 105 |
| COc1cc(CCc2cc(NC(=O)c3ccc(N4CC(C)NC(C)C4)cc3)n[nH]2)cc(OC)c1 (stereo unspecified) [AZD4547] (0.1 nM) | 101 | 92.3 | 97.9 | 91.5 | 82.8 | 93.2 | 105 | 135 | 102 | 99.9 | 97.9 | 94.2 | 95.3 | 104 | 115 | 103 | 97.5 | 101 | 97.5 |
| Nc1cccc2c1CN(C1CCC(=O)NC1=O)C2=O (stereo unspecified) [Lenalidomide] (1 nM) | 98.4 | 96.1 | 106 | 107 | 97.8 | 97.3 | 101 | 113 | 94 | 97.9 | 108 | 94 | 97.1 | 94.9 | 106 | 110 | 97 | 93.1 | 112 |
| CC(=O)OC[C@H]1O[C@@H]([S-])[C@H](OC(C)=O)[C@@H](OC(C)=O)[C@@H]1OC(C)=O.CCP(CC)CC.[Au+] [Auranofin] (0.25 nM) | 104 | 108 | 97.9 | 101 | 101 | 103 | 97.4 | 70.1 | 93.8 | 99.9 | 93.8 | 92.3 | 104 | 100 | 75.3 | 95.7 | 99.4 | 99 | 103 |
| O=C1c2c(O)ccc(O)c2C(=O)c2c(NCCNCCO)ccc(NCCNCCO)c21 [Mitoxantrone] (0.1 nM) | 98.9 | 103 | 94.2 | 98 | 94.2 | 97.3 | 99.3 | 101 | 84.4 | 102 | 101 | 98.1 | 96.9 | 103 | 95.3 | 97.8 | 91.8 | 104 | 99.3 |
| CCN(CC)CCNC(=O)c1c(C)[nH]c(/C=C2\C(=O)Nc3ccc(F)cc32)c1C [Sunitinib] (0.1 nM) | 106 | 99.3 | 96.1 | 114 | 108 | 103 | 100 | 81.7 | 94.9 | 98.5 | 99.9 | 95.8 | 93.5 | 105 | 94.7 | 103 | 104 | 103 | 106 |
| c1cc(CN2CCCNCCNCCCNCC2)ccc1CN1CCCNCCNCCCNCC1 [Plerixafor] (1 nM) | 96.9 | 81.4 | 91 | 81.3 | 98.5 | 85.5 | 105 | 82.4 | 94.3 | 103 | 92.3 | 95.9 | 98.2 | 102 | 105 | 97.3 | 95.8 | 98.7 | 87.1 |
| O=S(=O)(c1cccc2cnccc12)N1CCCNCC1 [Fasudil] (5 nM) | 101 | 97.9 | 101 | 101 | 105 | 99.3 | 99.6 | 81.8 | 98 | 103 | 102 | 94.8 | 97.3 | 95.5 | 109 | 103 | 97.4 | 96.1 | 107 |
| C[C@]12O[C@H](C[C@]1(O)CO)n1c3ccccc3c3c4c(c5c6ccccc6n2c5c31)CNC4=O [Lestaurtinib] (0.1 nM) | 102 | 92.9 | 94.8 | 89.2 | 90.7 | 96.7 | 98.4 | 91.1 | 94 | 100 | 103 | 95 | 97.8 | 103 | 92.7 | 95.8 | 96.7 | 99.6 | 100 |
